Measurements taken from ChEMBL document CHEMBL4118093, “Identification of a Hit Series of Antileishmanial Compounds through the Use of Mixture-Based Libraries” (ACS Med Chem Lett, 2017).

How the values were obtained:
J774 = assay: Cytotoxicity against mouse J774 cells
Leishmania donovani [1] = assay: Antileishmanial activity against Leishmania donovani axenic amastigotes at 5 uM after 72 hrs by Celltiter reagent based assay relative to control; assay type: functional
[2] = Selectivity index, ratio of IC50 for mouse J774 cells to IC50 for Leishmania donovani axenic amastigotes infected in mouse J774 cells; assay type: toxicity, cell-based; conditions: read-out: Ratio IC50
Leishmania donovani [3] = assay: Antileishmanial activity against Leishmania donovani axenic amastigotes at 2.5 uM after 72 hrs by Celltiter reagent based assay relative to control; assay type: functional
Leishmania donovani [4] = assay: Antileishmanial activity against Leishmania donovani axenic amastigotes infected in mouse J774 cells measured after 72 hrs by Draq5 staining based high content screening assay; assay type: functional, organism-based; conditions: J774, 72 h

`CCCCCCCN1C(=N)N(CCCC[C@H]2CNC(=N)N2CCc2cccc(C(F)(F)F)c2)C[C@@H]1CC1CCCCC1` showed an IC50 (J774) of 50 µM, an inhibition at 5 µM (Leishmania donovani [1]) of 6% and a selectivity ratio [2] of under 10. The inhibition at 2.5 µM (Leishmania donovani [3]) was 0% and the IC50 (Leishmania donovani [4]) was over 5 µM.
For `N=C1NC[C@H](CCCCN2C[C@H](CC3CCCCC3)N(CCCCC3CCCCC3)C2=N)N1CCc1cccc(C(F)(F)F)c1`, the IC50 (J774) was 26 µM, the inhibition at 5 µM (Leishmania donovani [1]) was 94% and the selectivity ratio [2] was 14. For the same molecule, the inhibition at 2.5 µM (Leishmania donovani [3]) was 0% and the IC50 (Leishmania donovani [4]) was 1.3 µM.
With `N=C1NC[C@H](CCCCN2C[C@H](CC3CCCCC3)N(CCc3ccc(-c4ccccc4)cc3)C2=N)N1CCc1cccc(C(F)(F)F)c1` the IC50 (J774) was 46 µM, the inhibition at 5 µM (Leishmania donovani [1]) was 97% and the selectivity ratio [2] was under 9. It also gave an inhibition at 2.5 µM (Leishmania donovani [3]) of 35% and an IC50 (Leishmania donovani [4]) of over 5 µM.
Molecule `CCCCCCCN1C(=N)N(CCCC[C@H]2CNC(=N)N2CCCCC2CCCCC2)C[C@@H]1CCCC` has an IC50 (J774) of 16 µM, an inhibition at 5 µM (Leishmania donovani [1]) of 98% and a selectivity ratio [2] of 12. It also gave an inhibition at 2.5 µM (Leishmania donovani [3]) of 68% and an IC50 (Leishmania donovani [4]) of 1.3 µM.
With `CCCC[C@H]1CN(CCCC[C@H]2CNC(=N)N2CCCCC2CCCCC2)C(=N)N1CCCCC1CCCCC1` the IC50 (J774) was 15 µM, the inhibition at 5 µM (Leishmania donovani [1]) was 99% and the selectivity ratio [2] was under 3. The inhibition at 2.5 µM (Leishmania donovani [3]) was 71% and the IC50 (Leishmania donovani [4]) was over 5 µM.
`CCCC[C@H]1CN(CCCC[C@H]2CNC(=N)N2CCCCC2CCCCC2)C(=N)N1CCc1ccc(-c2ccccc2)cc1` showed an IC50 (J774) of 12 µM, an inhibition at 5 µM (Leishmania donovani [1]) of 98% and a selectivity ratio [2] of 2. It also gave an inhibition at 2.5 µM (Leishmania donovani [3]) of 78% and an IC50 (Leishmania donovani [4]) of 5 µM.
Molecule `N=C1NC[C@H](CCCCN2C[C@@H](Cc3ccc4ccccc4c3)N(CCCCC3CCCCC3)C2=N)N1CCc1cccc(C(F)(F)F)c1` has an IC50 (J774) of 50 µM, an inhibition at 5 µM (Leishmania donovani [1]) of 75% and a selectivity ratio [2] of 28. The inhibition at 2.5 µM (Leishmania donovani [3]) was 6% and the IC50 (Leishmania donovani [4]) was 1.8 µM.
In the case of `CCCCCCCN1C(=N)N(CCCC[C@H]2CNC(=N)N2CCCCC2CCCCC2)C[C@H]1Cc1ccc2ccccc2c1`, the IC50 (J774) is reported as 50 µM, the inhibition at 5 µM (Leishmania donovani [1]) is reported as 97% and the selectivity ratio [2] is reported as 38. It also gave an inhibition at 2.5 µM (Leishmania donovani [3]) of 6% and an IC50 (Leishmania donovani [4]) of 1.3 µM.
`N=C1NC[C@H](CCCCN2C[C@@H](Cc3ccc4ccccc4c3)N(CCc3ccc(-c4ccccc4)cc3)C2=N)N1CCc1cccc(C(F)(F)F)c1` showed an IC50 (J774) of 50 µM, an inhibition at 5 µM (Leishmania donovani [1]) of 0% and a selectivity ratio [2] of 39. The inhibition at 2.5 µM (Leishmania donovani [3]) was 0% and the IC50 (Leishmania donovani [4]) was 1.3 µM.
